Patent US11633380B2, “Use of trans-[tetrachlorobis(1H-indazole)ruthenate(III)] for the treatment of cancer” (Bold Therapeutics, Inc., priority 2016, dated 2023)

Experiments:
GRP78 [1] = experiment: GRP78 protein level by western blot in cell lines, unstressed or thapsigargin-stressed (Example 1); assay type: cell-based, human; conditions: IT-139 200 μM, 16 hours
Protocol: Example 1. All human primary and metastatic cell lines were maintained as described by ATCC. Cells were seeded in a 6 well plate prior to treatment with media alone (control), IT-139 (200 μM) alone, thapsigargin alone (300 nM, to induce cell stress) or IT-139 plus thapsigargin. Cell lysates were collected at 16 hours and were analyzed by western blot for anti-GRP78 antibody and normalized by GAPDH.

GRP78 mRNA [2] = experiment: Quantitative real-time PCR of GRP78 transcripts in cell lines (Example 2); assay type: cell-based, human; conditions: IT-139 200 μM, 24 hours
Protocol: Example 2. All human primary and metastatic cell lines were maintained as described by ATCC. Cells were seeded in a 6 well plate prior to treatment with media alone (control), IT-139 (200 μM) alone, thapsigargin alone (300 nM, to induce cell stress) or IT-139 plus thapsigargin. Cell lysates were collected at 24 hours and total RNA was extracted. Quantitative real-time PCR analysis of GRP78 transcripts normalized to GAPDH.

CT26 cells = experiment: CT26 subcutaneous syngeneic tumor model (Example 3); assay type: in vivo, mice; conditions: twice weekly, four doses; IT-139 30 mg/kg intravenously, RPM1-14 5 mg/kg intraperitoneally; through day 18
Protocol: Example 3. CT26 cells (1 million) were subcutaneously implanted in immunocompetent mice and allowed to grow until a palpable tumor was established (day 3). Groups of four mice per group were treated twice weekly with four total doses of either 1) saline, 2) IT-139 alone (KP1339, 30 mg/kg), 3) RPM1-14 (PD-1 antibody, 5 mg/kg), or 4) RPM1-14 and IT-139 (5 mg/kg and 30 mg/kg, respectively). IT-139 was administered intravenously and RPM1-14 was administered intraperitoneally. Administrations were made on the same day. Tumor volume was measured through day 18.

HCT116 cells = experiment: Electron microscopic evaluation of HCT116 cells (Example 4); assay type: cell-based, human; conditions: IT-139 200 μM, 24 hours, versus untreated cells
Protocol: Example 4. HCT116 cell line was seeded one day prior to treatment according to ATCC guidelines. 24 hours after treatment with IT-139 (200 μM), treated and untreated cells were fixed for electron microscopic evaluation.

Pol II promoter = experiment: ChIP assay, Polymerase II binding to Pol II promoter in HCT116 cells (Example 5); assay type: cell-based, human; conditions: 200 μM IT-139, 16 hours
Protocol: (§1) Example 5. Chromatin immunoprecipitation (ChIP) assay was performed to examine Polymerase II binding to Pol II and GRP78 promoter regions in stressed and unstressed cells with IT-139 treatment. HCT116 cells were grown to 80% confluence then treated with 1.5 μg/mL tunicamycin and 200 μM IT-139 or DMSO for 16 hours. Chromatin was cross-linked using formaldehyde. Cells were harvested with trypsin and isolated nuclei were sonicated to yield fragments between 200-1000 bp. Equal amounts of chromatin were incubated with anti-Pol II antibody overnight then pulled down with Staph A cells. Cross-linking was reversed and the DNA was purified using a GeneElute PCR cleanup kit from Sigma. Purified DNA and input samples were subjected to 30 cycles of PCR with primers amplifying promoter regions of Grp78 and Pol II. The products were run on a 4% agarose gel and visualized with ethidium bromide staining. […] Strikingly, IT-139 dropped Polymerase II binding to the Grp78 promoter to zero in both non-stressed and Tu-stressed cells.

Grp78 promoter = experiment: ChIP assay, Polymerase II binding to Grp78 promoter in HCT116 cells (Example 5); assay type: cell-based, human; conditions: 200 μM IT-139, 16 hours
Protocol: as §1

GRP78 [3] = experiment: Immunohistochemical analysis of GRP78 in HT-29 xenograft tumors (Example 6); assay type: in vivo; conditions: IT-139 30 mg/kg (q4d), versus strong immunostaining in saline treated tumors
Protocol: Example 6. Immunohistochemical analysis was performed to analyze the expression of GRP78 in HT-29 xenograft tumors treated with IT-139 at 30 mg/kg (q4d) in comparison to saline treated tumors.

GRP78 [4] = experiment: GRP78 levels by western blot in normal embryonic kidney 293T cells (Example 7); assay type: cell-based, human
Protocol: Example 7. Normal human embryonic kidney 293T cells were either non-stressed (treated with normal media) or stressed (treated with 300 nM EndRet stress & GRP78 inducer Thapsigargin). Cell cultures were either treated with no drug (control) or 200 μM IT-139. GRP78 levels assayed by western blot; β-actin is loading control.

GRP78 mRNA [5] = experiment: Northern blot of GRP78 mRNA in LnCaP-FGC cells (Example 8); assay type: cell-based, human; conditions: untreated or 300 nM thapsigargin, indicated concentrations of IT-139
Protocol: Example 8. Prostate cancer LnCaP-FGC cells were untreated (DMSO only control) or treated with 300 nM thapsigargin (Tg). Cells were co-incubated with the indicated concentrations of IT-139 and Northern blot analysis was performed on cell lysates. β-actin is the loading control.

HCT116 = experiment: Mitochondrial potential, JC-1 flow cytometry, HCT116 (Example 9); assay type: cell-based, human; conditions: HCT116, 50 μM IT-139, 24 h
Protocol: (§2) Example 9. All human primary and metastatic cell lines were maintained as described by ATCC. All cell lines (HCT116, HT-29, LNCaP, A549 and A375) were seeded in a 6 well plate 24 hours prior to treatment with IT-139 alone. All cell lines were treated with 30 uM, 50 uM, 100 uM and 200 uM with the following exceptions: treatment with 30 uM and 200 uM were omitted for HCT116 and HT29 cell lines respectively. After 24 h incubation with the drug, cells were trypsinized and re-suspended in warm PBS and stained with the JC-1 dye for 30 min at 37 C in the dark. The cells were then washed and re-suspended in warm PBS. The fluorescence of the JC-1 dye was measured by flow cytometry analysis by exciting the dye at 488 nm and detecting the JC-1 monomer through its emission at 530 nm with aggregates of JC-1 being measured at 580 nm. All cell lines treated with Antimycin A at 50 uM as positive control.

HT29 = experiment: Mitochondrial potential, JC-1 flow cytometry, HT29 (Example 9); assay type: cell-based, human; conditions: HT29, 30 μM IT-139, 24 h
Protocol: as §2

LNCaP = experiment: Mitochondrial potential, JC-1 flow cytometry, LNCaP (Example 9); assay type: cell-based, human; conditions: prostate (LNCaP), 30-200 uM IT-139, 24 h
Protocol: as §2

A549 = experiment: Mitochondrial potential, JC-1 flow cytometry, A549 (Example 9); assay type: cell-based, human; conditions: lung (A549), 30-200 uM IT-139, 24 h
Protocol: as §2

A375 = experiment: Mitochondrial potential, JC-1 flow cytometry, A375 (Example 9); assay type: cell-based, human; conditions: melanoma (A375), 30-200 uM IT-139, 24 h
Protocol: as §2

[6] = system: normal peripheral blood mononuclear cells (PBMCs); experiment: Cell viability, MiaPaca2 cells co-cultured with normal PBMCs (Example 10); assay type: cell-based; conditions: IT-139 50, 100 and 200 μM, 24 h, co-culture with normal PBMCs
Protocol: Example 10. […] cancer cell line, MiaPaca2, was maintained as described by ATCC. […] […] PBMCs were activated using 6000 IU of IL-2 for 24 h.

MiaPaca2 cells = experiment: Cell death of MiaPaca2 cells co-cultured with IL-2 activated PBMCs (Example 10); assay type: cell-based; conditions: pre-treated with IT-139 100 μM, co-cultured with PBMCs activated with 6000 IU IL-2 for 24 h
Protocol: Example 10. […] cancer cell line, MiaPaca2, was maintained as described by ATCC. […] MiaPaca2 cells were either untreated or pre-treated with IT-139 (100 μM) and co-cultured with IL-2 activated PBMCs at varying doses. PBMCs were activated using 6000 IU of IL-2 for 24 h.

GRP78 [7] = experiment: GRP78 expression in ASPC20 cells, order of dosing thapsigargin and IT-139 (Example 11); assay type: cell-based; conditions: 30 hours
Protocol: FIG. 12 depicts expression of GRP78 protein levels treated with DMSO; 150 μM IT-139; 1 μM Thapsigargin (Tg); simultaneous treatment of 150 μM IT-139 and 1 μM Tg; 1 μM Tg treated for 6 hours followed by 150 μM IT-139 for 24 hours; and […] IT-139 for 24 hours followed by […] Tg treatment for 24 hours for lanes 1-5, respectively. Lanes 6-12 are the same treatments incubated for a further 24 hours.
Example 11. […] In vitro ASPC20 cells are treated for 48 hours with DMSO (control), 150 μM IT-139, 5 μM gemcitabine, simultaneous 150 μM IT-139 and 5 μM gemcitabine, 5 μM gemcitabine for 24 hours followed by 150 μM IT-139, or 150 μM IT-139 followed by 24 hrs 5 μM gemcitabine. Cells are harvested and counted by trypan blue to calculate the number of dead cells versus viable cells. […] PANC-1 cells are treated in vitro for 48 hours with DMSO (control), 150 μM IT-139, 5 μM gemcitabine, simultaneous 150 μM IT-139 and 5 μM gemcitabine, 5 μM gemcitabine for 24 hours followed by 150 μM IT-139, and 150 μM IT-139 followed by 24 hours 5 μM gemcitabine.

[8] = system: UPR (XBP-1 spliced form, ATF6, eIF2a); experiment: Effect on other arms of the UPR; assay type: cell-based
[9] = system: GRP78 promoter fragment (−169 to −29; contains 3 ERSEs); experiment: GRP78 promoter fragment luciferase reporter; assay type: cell-based
tumor types = experiment: Preclinical anti-tumor and combination studies
[10] = stressed cells (thapsigargin 300 nM)
[11] = Tu-stressed HCT116 cells (1.5 μg/mL tunicamycin)

**Q.** Which “effect on GRP78 protein (western blot, normalized by GAPDH)” value (GRP78 [1]; [10]) does the source give for [Cl][Ru-]([Cl])([Cl])[Cl].[Na+].c1ccc2[nH]ncc2c1.c1ccc2[nH]ncc2c1 [IT-139, sodium trans-[tetrachlorobis(1H-indazole)ruthenate(III)]] here?
**A.** Its value is “decreased the amount of GRP78”.

**Q.** And the “effect on GRP78 protein (western blot, normalized by GAPDH)” value (GRP78 [1]; unstressed cells)?
**A.** The value was “little to no effect”.

**Q.** What about the “effect on GRP78 mRNA expression (qRT-PCR, normalized to GAPDH)” value (GRP78 mRNA [2]; [10]) of the same molecule?
**A.** Its value is “decreased the amount of GRP78 mRNA expression”.

**Q.** And the “effect on grp78 mRNA levels (qRT-PCR, normalized to GAPDH)” value (GRP78 mRNA [2]; unstressed cells)?
**A.** Its value is “little impact”.

**Q.** What about the “anti-tumor activity (tumor volume)” value (CT26 cells) of the same molecule?
**A.** Its value is “demonstrated anti-tumor activity”.

**Q.** What about the “cell morphology by electron microscopy” value (HCT116 cells) of the same molecule?
**A.** The value was “significant vacuolization, ER expansion and disorganization of intracellular organelles”.

**Q.** What about the “Polymerase II binding to the Pol II promoter, reduced to” value (Pol II promoter; [11]) of the same molecule?
**A.** The value was 40%.

**Q.** And the “Polymerase II binding to the Pol II promoter” value (Pol II promoter; non-stressed HCT116 cells)?
**A.** The value was “minimal effect”.

**Q.** And the “Polymerase II binding to the Grp78 promoter, dropped to” value (Grp78 promoter; [11])?
**A.** The value was “zero”.

**Q.** What about the “Polymerase II binding to the Grp78 promoter, dropped to” value (Grp78 promoter; non-stressed HCT116 cells) of the same molecule?
**A.** The value was “zero”.

**Q.** What about the “GRP78 immunostaining of tumors” value (GRP78 [3]) of the same molecule?
**A.** The value was “very weak staining”.

**Q.** What about the “effect on basal GRP78 levels” value (GRP78 [4]; non-stressed normal cells) of the same molecule?
**A.** The value was “does not effect the basal GRP78 levels”.

**Q.** And the “effect on GRP78 up-regulation due to stress” value (GRP78 [4]; stressed normal cells)?
**A.** The value was “does not effect GRP78 up-regulation due to stress”.

**Q.** What about the “suppression of GRP78 at the transcriptional level (Northern blot, normalized against β-actin)” value (GRP78 mRNA [5]) of the same molecule?
**A.** Its value is “dose dependent manner”.

**Q.** What about the “mitochondrial potential (JC-1)” value (HCT116) of the same molecule?
**A.** Its value is “increased loss of mitochondrial potential”.

**Q.** What about the “mitochondrial potential (JC-1)” value (HT29) of the same molecule?
**A.** Its value is “increased loss of mitochondrial potential”.

**Q.** And the “mitochondrial potential (JC-1)” value (LNCaP)?
**A.** Its value is “increase in mitochondrial depolarization at high concentrations”.

**Q.** What about the “mitochondrial potential (JC-1)” value (A549) of the same molecule?
**A.** Its value is “increase in mitochondrial depolarization at high concentrations”.

**Q.** And the “mitochondrial potential (JC-1)” value (A375)?
**A.** The value was “increase in mitochondrial depolarization at high concentrations”.

**Q.** What about the cell viability [6] of the same molecule?
**A.** Its cell viability is “did not show any effect upon cell viability”.

**Q.** And the “cell death in MiaPaca2 cells” value (MiaPaca2 cells)?
**A.** Its value is “increased cell death”.

**Q.** What about the “effect of order of dosing with thapsigargin (Tg) on GRP78 expression” value (GRP78 [7]) of the same molecule?
**A.** Its value is “affects levels of GRP78 expression”.

**Q.** And the “effect on other arms of the UPR (induction XBP-1 spliced form; induction, processing and nuclear import of ATF6; phosphorylation of eIF2a)” value [8]?
**A.** Its value is “does not block other arms of the UPR”.

**Q.** What about the “stress-induction of GRP78 promoter fragment linked to luciferase reporter gene” value [9] of the same molecule?
**A.** The value was “suppress stress-induction”.

**Q.** What about the “synergy in combination with other anti-cancer drugs” value (tumor types; all different classes of anti-cancer drugs tested to date) of the same molecule?
**A.** The value was “marked synergy”.

**Q.** What about the “anti-tumor activity in preclinical studies” value (tumor types; including tumor types resistant to standard anti-cancer agents) of the same molecule?
**A.** The value was “activity against a broad range of tumor types”.
